We go through 1 molecule from US11352382B2, “Mito-lonidamine, compositions and methods of use” (THE MEDICAL COLLEGE OF WISCONSIN, INC., priority 2018, dated 2022).

For data set [1], the system named is Pancreatic cancer cells. Description: Anti-proliferative effects in pancreatic cancer cells (number of cells over time). Format: cell-based, human. Particulars: Pancreatic cancer cell; in vitro; b60 words: cancer cells (human pancreatic cancer, lung cancer and brain metastasis); read-out: IC50, inhibiting the proliferation of cancer cells. How it is done: Pancreatic cancer cells were treated with either LND or Mito-LND at varying concentrations and the number of cells was assayed over time.

Data set [2] deals with mitochondrial complexes I and II. Description: Inhibition of mitochondrial complexes I and II, stated jointly. Format: cell-based, human. An excerpt:
LON and Mito-LON inhibit mitochondrial complex I activity. Mito-LON inhibited cellular respiration (oxygen consumption rate, OCR) at >100-fold lower concentration than LON in intact lung cancer cells (FIG. 9). Both basal respiration and the response to mitochondrial stressors (oligomycin, dinitrophenol) were diminished by Mito-LON (not shown). To investigate the mechanism of mitochondrial inhibition, we measured the activity of mitochondrial complexes in H2030BrM3 cells (NSCLC cell line). The cell membrane was permeabilized, and OCR was measured upon addition of substrates and inhibitors of mitochondrial complexes I-IV (FIG. 9A). These studies established the optimal use of permeabilized cells for complex activity assays.^54 Next, cells were pretreated with LON and Mito-LON for 24 h and experiments performed as in FIG. 9A. […] We hypothesize that inhibition of mitochondrial complexes I and II is the predominant mechanism for antiproliferative effects of Mito-LON on lung cancer cells.

Data set [3] concerns H2030BrM3 cells. Kind of data set: Cell proliferation, IncuCyte Live-Cell Imaging Analyzer (cell confluence). Format: cell-based. Particulars: Homo sapiens, H2030-BrM3; H2030BrM3 cells, IncuCyte, FIG. 14; read-out: IC50, cell proliferation. How it is done:
(§1) In contrast, Mito-LON (1.2-2.7 μM) targets mitochondrial complexes I and II (FIG. 9); its mitochondrial effects are supported by the compartment-selective oxidation of mitochondrial Prx3 (FIG. 13). The anti-proliferative effects of Mito-LON and LON were compared in H2030BrM3 cells.

Data set [4] relates to PC9BrM3 and H2030BrM3 brain metastasis lung cancer cell lines. Description: Boyden chamber (transwell) invasion assay. It is filed as cell-based. Conditions: Homo sapiens, H2030-BrM3; LON 100 μM alone; read-out: inhibitory effect on invasion when used alone. An excerpt: Mito-LON inhibits migration and invasion of brain metastatic human lung cancer cells. To investigate the potential of Mito-LON and LON for lung cancer metastasis, we first tested its effects in vitro via the Boyden chamber invasion assay using PC9BrM3 and H2030BrM3 brain metastasis lung cancer cell lines.

In data set [5] the test system is H2030BrM3 cells. Kind of data set: Cellular ROS production, HPLC-based analysis of hydroethidine (HE) oxidation. It is filed as cell-based, human. Particulars: 200 μM, H2030BrM3 cells. An excerpt: Inhibition of mitochondrial respiration results in increased O2^⋅− and other oxidants.
In data set [6] the test system is HK2. Kind of data set: HK2 protein levels and mRNA expression in lung cancer lines. It is filed as cell-based, human. How it is done:
as §1
Role of HK2 and additional possible signaling events that contribute to the effects of Mito-LON. […] This could contribute to their effects as many cancers have constitutive ERK activation which promotes survival and proliferation, and ERK1 can play an important role in regulating mitochondrial activity, apoptosis, proliferation and migration. […] AKT is another pro-survival factor that is constitutively activated (phosphorylated) in many cancers.

The test system of data set [7] is H2030BrM3 orthotopic lung adenocarcinoma in nude mice. Description: Orthotopic lung tumor mouse model. It is filed as in vivo. Conditions: 7.5 μmol/kg oral gavage 5 times/wk for 3 wks, nude mice. How it is done: Inhibitory effects of Mito-LON in an orthotopic lung tumor mouse model. We conducted a pilot study using an orthotopic model of lung adenocarcinoma (H2030BrM3 cells) in nude mice. Cells (1×10^6 cells/50 μg of growth factor-reduced Matrigel in 50 μL of RPMI-1640) were injected into the lung. One week after injection, mice were treated with the same dose of LON or Mito-LON (7.5 μmol/kg), or vehicle (corn oil), by oral gavage 5 times/wk for 3 wks.

The conditions of data set [8]: patients; cited from earlier work.
The conditions of data set [9]: at clinically relevant concentrations (<130 μM); cited from earlier work.

`O=C(O)c1nn(Cc2ccc(Cl)cc2Cl)c2ccccc12` [LON, 1-(2,4-dichlorobenzyl)-1H-indazole-3-carboxylic acid, reference compound]: the IC50 is 327 µM in [1]; roughly 400 µM in data set [2] (pretreatment of H2030BrM3 cells, read-out: IC50, inhibition of complex I and II); 140 µM in [3]; 100 to 150 µM in [6] (FIG. 17, read-out: IC50, ability to decrease HK2 levels). The “concentration at which effects on complex I and II occur” value in data set [2] is recorded as “ca. 400 μM”. Further, in data set [4], the inhibition at 100 µM was less than 10%. Also, in [5], the “intracellular levels of 2-OH-E+ (superoxide-specific product of HE oxidation)” value is on record as “increase”. Besides, the HK2 levels result in data set [6] (both lung cancer lines, within 3-6 h) was “decreased HK2 levels”. In addition, in data set [6] (not shown), the “decrease of HK2 mRNA expression” value was greater than 80%. Further, in data set [7], the “efficacy in orthotopic lung tumor model” value was “not effective”. Besides, the “typical peak plasma levels” value in data set [8] was 17 to 127 µM. In addition, the “effectiveness by itself in vitro” value in data set [9] is listed as “only moderately effective”.
